# Test system: depressed mice (chronic unpredictable stress depression mouse model)
# Test: Butyric acid content in the caecum of depressed mice (GC-MS)
# Assay type: in vivo, C57BL/6J mice
# Settings: 6 weeks intervention (CCFM687 10^9 cfu or fluoxetine 10 mg/kg), GC-MS of cecal content (FIG. 3)
# Protocol: 32 6-week-old male C57BL/6J mice were selected. After one week of adaptation to the environment, the mice were randomly divided into four groups according to body weight: a control group, a model group, a fluoxetine intervention group, and a CCFM687 intervention group, each containing 8 mice.
# Chronic unpredictable stress depression mouse model: 1-2 kinds of stimuli were randomly performed every day, and the performance time of stimuli every day was determined randomly to avoid the circadian rhythm. Each method was used for not more than three times, and the stimuli were performed for five weeks. The stimuli include: (1) fasting for 24 h; (2) water deprivation+empty bottle stimulus for 24 h; (3) tail pinching for 3 min; (4) wet padding for 24 h; (5) immobilization for 1-2 h; (6) 45° tilted cage for 24 h; (7) continuous lighting for 24 h; (8) no padding for 24 h; (9) forced swim for 15 min; and (10) separation for 24 h. […]
# The mice in Example 2 were euthanized at the sixth weekend, and the content of the cecum of the mice was collected. […] 500 μL of supernatant was taken into a gas phase vial, and the contents of short-chain fatty acids (acetic acid, propionic acid, isobutyric acid, butyric acid and isovaleric acid) were measured by GC-MS. […] The analysis adopted a full scan mode, and the concentration of each short-chain fatty acid (μmol/g) was calculated by an external standard method. […]
smiles,measurement,value
CNCCC(Oc1ccc(C(F)(F)F)cc1)c1ccccc1 (stereo not shown) [fluoxetine],butyric acid content in the caecum / intestine,has no regulating effect on the butyric acid content
